The results in this text go back to patent publication US12491170B2, “Stable treprostinil prodrugs” (United Therapeutics Corporation, priority 2020, dated 2025).

A short description of series [1]: Stability in liver microsomes, human. To be noted: for AUC: human. For orientation: Microsomes from liver hold many membrane-bound enzymes, among them those of drug oxidation.
A short description of series [2]: Stability in liver microsomes, rat.
Series [3] is described as follows: Stability in liver microsomes, dog.
Series [4] in a line: Stability in human subcutaneous skin homogenate. To be noted: for AUC: human. The method, then: The pool of skin homogenate was prepared by combining equal volumes of three lots that were tested in the initial skin homogenate lot assessment experiments.
A stock solution of calcein-AM was first prepared at 5 mM in DMSO, followed by a serial dilution into methanol at a concentration of 100 μM. 495 μL of skin homogenate was thawed and warmed to 37° C. A 5 μL aliquot of the 100 μM calcein-AM solution was spiked into the skin homogenate, for a final calcein-AM dosing concentration of 1 μM. After briefly mixing, 150 μL aliquots were removed in triplicate and transferred to 96-well Falcon plates. The plates were placed onto a Thermomixer and maintained at 37° C., with gentle shaking for the duration of the experiment. At each time point (0, 15, 30, 60, and 120 minutes), the plate was removed from the Thermomixer and transferred to a FLUOstar® plate reader, and the formation of calcein (Sigma) was monitored by fluorescence (490/515 nm). Calibration standards of calcein were prepared in distilled water by serial dilutions of a calcein DMSO stock at final concentrations ranging from 1 μM to 1 nM. All samples and standards were read concurrently (Table 13).
For each of the test articles, 495 μL of skin homogenate was added to triplicate centrifuge tubes. To each tube, 5 μL of a 100 μM solution of test article was added, for a final test article dosing concentration of 1 μM. The tubes were placed onto a Thermomixer and maintained at 37° C. with gentle shaking for the duration of the experiment. At each time point (0, 30, 60, and 120 minutes), a 100 μL aliquot was removed from each tube and combined with 200 μL of acetonitrile to stop the stability reaction. The tubes were mixed and centrifuged at 3000 rpm for 10 minutes. Aliquots of supernatant were removed and diluted 1:1 with distilled water containing internal standard (2 μM treprostinil-d4). Calibration standards for the treprostinil analysis were prepared for each test article in a surrogate matrix (supernatant from a mixture of 1:2 human plasma:acetonitrile), at concentrations ranging from 1 μM to 1 nM. Calibration standards were also diluted 1:1 with distilled water containing internal standard. The disappearance of each individual test article was monitored, as well as the formation of treprostinil (Table 14 and Table 15).

For series [5] the following is noted: rat.
For series [6] the following is noted: dog.

Structures are written as SMILES. Like-named read-outs stand apart in the source and are kept apart here.

Turning to `CCCCCC(O)CCC1C(OC)CC2Cc3c(cccc3OCC(=O)O)CC21` (stereo not shown) [LIII], in series [1], the “Trep Concentration 0 min” value amounted to 0.0216 µM, the “Trep Concentration 10 min” value was 0.0336 µM, the “Trep Concentration 20 min” value was 0.0343 µM and the “Trep Concentration 30 min” value came to 0.0459 µM. Besides, in series [1], the “Trep Concentration 60 min” value turned out to be 0.0354 µM and the AUC is 2.24 µmol·min/L. In addition, in series [2], the “Trep Concentration 0 min” value was 0.0196 µM, the “Trep Concentration 10 min” value was found to be 0.0177 µM, the “Trep Concentration 20 min” value came out at 0.024 µM and the “Trep Concentration 30 min” value turned out to be 0.0274 µM. In addition, in series [2], the “Trep Concentration 60 min” value came out at 0.0271 µM. Further, in series [3], the “Trep Concentration 0 min” value stood at 0.0189 µM, the “Trep Concentration 10 min” value was determined as 0.0224 µM, the “Trep Concentration 20 min” value stood at 0.0209 µM and the “Trep Concentration 60 min” value is 0.0222 µM. Also, in series [4], the “Trep Concentration 0 min” value was found to be 0.0159 µM, the “Trep Concentration 30 min” value was determined as 0.0165 µM, the “Trep Concentration 60 min” value is 0.0165 µM and the exposure (AUC) came out at 1.99 µmol·min/L. For the same compound, the area under the curve (AUC) in series [5] is 1.47 µmol·min/L. For the same compound, in series [6], the AUC was found to be 1.33 µmol·min/L.

Turning to `CCCCCC(CCC1C(O)CC2Cc3c(cccc3OCC(=O)O)CC21)OCOC(=O)C(C)(C)C` (stereo not shown) [LII], in series [1], the “Trep Concentration 0 min” value turned out to be 0.948 µM, the “Trep Concentration 10 min” value is 0.798 µM, the “Trep Concentration 20 min” value came to 0.679 µM and the “Trep Concentration 30 min” value amounted to 0.538 µM. Moreover, in series [1], the “Trep Concentration 60 min” value is 0.346 µM and the exposure (AUC) was 35.46 µmol·min/L. Also, in series [2], the “Trep Concentration 0 min” value was 0.937 µM, the “Trep Concentration 10 min” value was 0.938 µM, the “Trep Concentration 20 min” value turned out to be 0.892 µM and the “Trep Concentration 30 min” value is 0.838 µM. Besides, the “Trep Concentration 60 min” value in series [2] was determined as 0.802 µM. Besides, in series [3], the “Trep Concentration 0 min” value came to 0.758 µM, the “Trep Concentration 10 min” value is 0.885 µM, the “Trep Concentration 20 min” value came to 0.868 µM and the “Trep Concentration 30 min” value stood at 0.834 µM. Besides, in series [3], the “Trep Concentration 60 min” value worked out at 0.84 µM. For the same compound, in series [4], the “Trep Concentration 0 min” value was 0.0201 µM, the “Trep Concentration 30 min” value is 1.05 µM, the “Trep Concentration 60 min” value turned out to be 1.22 µM and the “Trep Concentration 120 min” value was determined as 1.3 µM. Moreover, in series [4], the exposure (AUC) is 125.70 µmol·min/L. Further, in series [5], the exposure (AUC) is 51.78 µmol·min/L. The area under the curve (AUC) in series [6] was determined as 50.60 µmol·min/L.

On to `CCCCCC(CCC1C(O)CC2Cc3c(cccc3OCC(=O)O)CC21)OC(=O)N1CCCCC1` (stereo not shown) [XIX], for which, in series [1], the “Trep Concentration 0 min” value is 0 µM, the “Trep Concentration 10 min” value was 0 µM, the “Trep Concentration 20 min” value was 0.014 µM and the “Trep Concentration 30 min” value amounted to 0.018 µM. Also, in series [1], the “Trep Concentration 60 min” value was found to be 0.022 µM and the exposure (AUC) turned out to be 0.83 µmol·min/L. Besides, in series [2], the “Trep Concentration 0 min” value was 0 µM, the “Trep Concentration 10 min” value amounted to 0 µM, the “Trep Concentration 20 min” value came out at 0 µM and the “Trep Concentration 30 min” value amounted to 0 µM. In addition, in series [2], the “Trep Concentration 60 min” value stood at 0 µM. Besides, in series [3], the “Trep Concentration 0 min” value amounted to 0 µM, the “Trep Concentration 10 min” value was 0 µM, the “Trep Concentration 20 min” value stood at 0 µM and the “Trep Concentration 30 min” value is 0 µM. Moreover, the “Trep Concentration 60 min” value in series [3] is 0 µM. Besides, in series [4], the “Trep Concentration 0 min” value is 0 µM, the “Trep Concentration 30 min” value was 0 µM, the “Trep Concentration 60 min” value worked out at 0 µM and the “Trep Concentration 120 min” value was 0 µM. The AUC in series [4] came out at 0.00 µmol·min/L. The exposure (AUC) in series [5] worked out at 0.00 µmol·min/L. Further, the exposure (AUC) in series [6] was 0.00 µmol·min/L.

In the case of `CCCCCC(CCC1C(O)CC2Cc3c(cccc3OCC(=O)O)CC21)OC(=O)OC(C)C` (stereo not shown) [XVII], in series [1], the “Trep Concentration 0 min” value amounted to 0.55 µM, the “Trep Concentration 10 min” value worked out at 0.55 µM, the “Trep Concentration 20 min” value is 0.5 µM and the “Trep Concentration 30 min” value was 0.39 µM. Moreover, in series [1], the “Trep Concentration 60 min” value came to 0.27 µM and the AUC was determined as 25.10 µmol·min/L. Moreover, in series [2], the “Trep Concentration 0 min” value came out at 0.29 µM, the “Trep Concentration 10 min” value amounted to 0.46 µM, the “Trep Concentration 20 min” value came to 0.48 µM and the “Trep Concentration 30 min” value worked out at 0.53 µM. Also, in series [2], the “Trep Concentration 60 min” value was 0.53 µM. For the same compound, in series [3], the “Trep Concentration 0 min” value was 0.45 µM, the “Trep Concentration 10 min” value is 0.57 µM, the “Trep Concentration 20 min” value was 0.66 µM and the “Trep Concentration 30 min” value was found to be 0.74 µM. In series [3], the “Trep Concentration 60 min” value stood at 0.85 µM. In series [4], the “Trep Concentration 0 min” value turned out to be 0 µM, the “Trep Concentration 30 min” value was 0.064 µM, the “Trep Concentration 60 min” value was 0.12 µM and the “Trep Concentration 120 min” value was found to be 0.22 µM. Moreover, in series [4], the AUC was determined as 13.92 µmol·min/L. The same compound yielded an AUC in series [5] of 29.40 µmol·min/L. Further, the area under the curve (AUC) in series [6] was 42.10 µmol·min/L.

Consider `CCCCCC(CCC1C(O)CC2Cc3c(cccc3OCC(=O)O)CC21)OC(=O)OCC` (stereo not shown) [XVI], for which, in series [1], the “Trep Concentration 0 min” value stood at 0.69 µM, the “Trep Concentration 10 min” value came to 0.6 µM, the “Trep Concentration 20 min” value is 0.49 µM and the “Trep Concentration 30 min” value worked out at 0.41 µM. Besides, in series [1], the “Trep Concentration 60 min” value worked out at 0.25 µM and the AUC worked out at 26.30 µmol·min/L. In series [2], the “Trep Concentration 0 min” value was 0.98 µM, the “Trep Concentration 10 min” value was found to be 0.97 µM, the “Trep Concentration 20 min” value stood at 0.92 µM and the “Trep Concentration 30 min” value amounted to 0.91 µM. For the same compound, the “Trep Concentration 60 min” value in series [2] worked out at 0.86 µM. Also, in series [3], the “Trep Concentration 0 min” value was 0.66 µM, the “Trep Concentration 10 min” value amounted to 0.95 µM, the “Trep Concentration 20 min” value turned out to be 1.01 µM and the “Trep Concentration 30 min” value amounted to 1.01 µM. Moreover, the “Trep Concentration 60 min” value in series [3] is 0.92 µM. Moreover, in series [4], the “Trep Concentration 0 min” value came to 0 µM, the “Trep Concentration 30 min” value was determined as 0.17 µM, the “Trep Concentration 60 min” value was 0.31 µM and the “Trep Concentration 120 min” value was 0.53 µM. In series [4], this compound displayed an AUC of 34.95 µmol·min/L. This compound came in with an AUC in series [5] of 54.90 µmol·min/L. For the same compound, the AUC in series [6] was 56.90 µmol·min/L.

Turning to `CCCCCC(O)CCC1C(OC(=O)CCC(=O)O)CC2Cc3c(cccc3OCC(=O)O)CC21` (stereo not shown) [XXII], in series [1], the “Trep Concentration 0 min” value amounted to 0 µM, the “Trep Concentration 10 min” value was 0 µM, the “Trep Concentration 20 min” value turned out to be 0 µM and the “Trep Concentration 30 min” value was 0 µM. Also, in series [1], the “Trep Concentration 60 min” value is 0 µM and the AUC came out at 0.00 µmol·min/L. Further, in series [2], the “Trep Concentration 0 min” value was 0 µM, the “Trep Concentration 10 min” value amounted to 0 µM, the “Trep Concentration 20 min” value came out at 0 µM and the “Trep Concentration 30 min” value was 0 µM. For the same compound, the “Trep Concentration 60 min” value in series [2] amounted to 0.016 µM. Besides, in series [3], the “Trep Concentration 0 min” value was 0 µM, the “Trep Concentration 10 min” value was determined as 0 µM, the “Trep Concentration 20 min” value turned out to be 0 µM and the “Trep Concentration 30 min” value is 0 µM. Moreover, the “Trep Concentration 60 min” value in series [3] was 0 µM. Also, in series [4], the “Trep Concentration 0 min” value is 0 µM, the “Trep Concentration 30 min” value stood at 0 µM, the “Trep Concentration 60 min” value was found to be 0 µM and the “Trep Concentration 120 min” value stood at 0 µM. The compound further had an AUC in series [4] of 0.00 µmol·min/L. In addition, the exposure (AUC) in series [5] was 0.24 µmol·min/L. This compound showed an AUC in series [6] of 0.00 µmol·min/L.

By AUC is commonly meant concentration integrated over time.
